Tests used:
Assay in all cases: biochemical
Type in all cases: biochemical
panel of 391 kinases [1] = target: panel of 391 kinases (Homo sapiens, UniProt Q9Y2K2); conditions: SIK3, MK-28 1 µM, ATP 1 µM
panel of 391 kinases [2] = target: panel of 391 kinases (Homo sapiens, UniProt Q16584); conditions: MLK3/MAP3K11, MK-28 1 µM, ATP 1 µM
panel of 391 kinases [3] = target: panel of 391 kinases (Homo sapiens, UniProt P12931); conditions: c-Src, MK-28 1 µM, ATP 1 µM
panel of 391 kinases [4] = target: panel of 391 kinases (Homo sapiens, UniProt P14616); conditions: IRR/INSRR, MK-28 1 µM, ATP 1 µM
panel of 391 kinases [5] = target: panel of 391 kinases (Homo sapiens, UniProt P37023); conditions: ALK1/ACVRL1, MK-28 1 µM, ATP 1 µM
panel of 391 kinases [6] = target: panel of 391 kinases (Homo sapiens, UniProt Q6DT37); conditions: DMPK2, MK-28 1 µM, ATP 1 µM
panel of 391 kinases [7] = target: panel of 391 kinases (Homo sapiens, UniProt Q96PY6); conditions: NEK1, MK-28 1 µM, ATP 1 µM
panel of 391 kinases [8] = target: panel of 391 kinases (Homo sapiens, UniProt P49674); conditions: CK1epsilon, MK-28 1 µM, ATP 1 µM
panel of 391 kinases [9] = target: panel of 391 kinases (Homo sapiens, UniProt Q6P5Z2); conditions: PKN3/PRK3, MK-28 1 µM, ATP 1 µM
panel of 391 kinases [10] = target: panel of 391 kinases (Homo sapiens, UniProt Q13237); conditions: PKG2/PRKG2, MK-28 1 µM, ATP 1 µM
panel of 391 kinases [11] = target: T1, panel of 391 kinases (Homo sapiens, UniProt P10398); conditions: ARAF, MK-28 1 µM, ATP 1 µM
T1 sequence (P10398 1-606): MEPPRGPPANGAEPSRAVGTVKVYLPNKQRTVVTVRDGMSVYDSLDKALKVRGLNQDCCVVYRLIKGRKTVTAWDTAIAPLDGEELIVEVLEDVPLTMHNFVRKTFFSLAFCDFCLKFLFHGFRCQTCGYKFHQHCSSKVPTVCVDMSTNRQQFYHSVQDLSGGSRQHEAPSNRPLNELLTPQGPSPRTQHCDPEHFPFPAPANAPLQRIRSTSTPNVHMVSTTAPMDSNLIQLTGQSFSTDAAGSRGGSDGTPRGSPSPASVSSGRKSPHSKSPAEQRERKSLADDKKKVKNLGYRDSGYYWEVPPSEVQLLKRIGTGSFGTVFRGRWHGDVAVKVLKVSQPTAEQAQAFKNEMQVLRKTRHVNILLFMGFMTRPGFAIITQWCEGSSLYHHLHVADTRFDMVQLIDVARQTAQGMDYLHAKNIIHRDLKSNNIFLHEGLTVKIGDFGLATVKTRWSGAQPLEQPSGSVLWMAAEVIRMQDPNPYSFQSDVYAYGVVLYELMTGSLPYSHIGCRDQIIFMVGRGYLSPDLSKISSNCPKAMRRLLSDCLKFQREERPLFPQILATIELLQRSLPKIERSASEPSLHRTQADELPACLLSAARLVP

panel of 391 kinases [12] = target: panel of 391 kinases (Homo sapiens, UniProt Q16288); conditions: TRKC, MK-28 1 µM, ATP 1 µM
panel of 391 kinases [13] = target: panel of 391 kinases (Homo sapiens, UniProt Q04759); conditions: PKCtheta, MK-28 1 µM, ATP 1 µM
panel of 391 kinases [14] = target: panel of 391 kinases (Homo sapiens, UniProt Q9UIK4); conditions: DAPK2, MK-28 1 µM, ATP 1 µM
panel of 391 kinases [15] = target: panel of 391 kinases (Homo sapiens, UniProt Q6VAB6); conditions: KSR2, MK-28 1 µM, ATP 1 µM
panel of 391 kinases [16] = target: panel of 391 kinases (Homo sapiens, UniProt P49137); conditions: MAPKAPK2, MK-28 1 µM, ATP 1 µM
panel of 391 kinases [17] = target: panel of 391 kinases (Homo sapiens, UniProt Q56UN5); conditions: YSK4/MAP3K19, MK-28 1 µM, ATP 1 µM
panel of 391 kinases [18] = target: panel of 391 kinases (Homo sapiens, UniProt P37173); conditions: TGFBR2, MK-28 1 µM, ATP 1 µM
panel of 391 kinases [19] = target: panel of 391 kinases (Homo sapiens, UniProt Q9HAZ1); conditions: CLK4, MK-28 1 µM, ATP 1 µM
panel of 391 kinases [20] = target: panel of 391 kinases (Homo sapiens, UniProt Q86UX6); conditions: STK32C/YANK3, MK-28 1 µM, ATP 1 µM
panel of 391 kinases [21] = target: panel of 391 kinases (Homo sapiens, UniProt Q9Y6M4); conditions: CK1g3, MK-28 1 µM, ATP 1 µM
panel of 391 kinases [22] = target: panel of 391 kinases (Homo sapiens, UniProt Q9H2X6); conditions: HIPK2, MK-28 1 µM, ATP 1 µM
[23] = read-out: % Enzyme Activity (relative to DMSO controls)

`CN(/N=C\c1ccc(O)c(O)c1)c1nc(-c2ccccc2)cc(-c2ccccc2)n1` [MK-28] was tested, and the “% Enzyme Activity (relative to DMSO controls)” value (panel of 391 kinases [1]) was 101.97%, the remaining activity at 1 µM (panel of 391 kinases [1]; [23]) was 105% and the “% Enzyme Activity (relative to DMSO controls)” value (panel of 391 kinases [2]) was 162.84%. For the same molecule, the remaining activity at 1 µM (panel of 391 kinases [2]; [23]) was 168%, the “% Enzyme Activity (relative to DMSO controls)” value (panel of 391 kinases [3]) was 96.32% and the remaining activity at 1 µM (panel of 391 kinases [3]; [23]) was 97.7%. For the same molecule, the “% Enzyme Activity (relative to DMSO controls)” value (panel of 391 kinases [4]) was 82.69%, the remaining activity at 1 µM (panel of 391 kinases [4]; [23]) was 85.9% and the “% Enzyme Activity (relative to DMSO controls)” value (panel of 391 kinases [5]) was 91.36%. The remaining activity at 1 µM (panel of 391 kinases [5]; [23]) was 94.7%, the “% Enzyme Activity (relative to DMSO controls)” value (panel of 391 kinases [6]) was 101.16% and the remaining activity at 1 µM (panel of 391 kinases [6]; [23]) was 106%. The “% Enzyme Activity (relative to DMSO controls)” value (panel of 391 kinases [7]) was 92.29%, the remaining activity at 1 µM (panel of 391 kinases [7]; [23]) was 94.7% and the “% Enzyme Activity (relative to DMSO controls)” value (panel of 391 kinases [8]) was 82.77%. The remaining activity at 1 µM (panel of 391 kinases [8]; [23]) was 83.4%, the “% Enzyme Activity (relative to DMSO controls)” value (panel of 391 kinases [9]) was 98.68% and the remaining activity at 1 µM (panel of 391 kinases [9]; [23]) was 101%. The “% Enzyme Activity (relative to DMSO controls)” value (panel of 391 kinases [10]) was 85.92%, the remaining activity at 1 µM (panel of 391 kinases [10]; [23]) was 86% and the “% Enzyme Activity (relative to DMSO controls)” value (panel of 391 kinases [11]) was 93.30%. For the same molecule, the remaining activity at 1 µM (panel of 391 kinases [11]; [23]) was 96.2%, the “% Enzyme Activity (relative to DMSO controls)” value (panel of 391 kinases [12]) was 91.11% and the remaining activity at 1 µM (panel of 391 kinases [12]; [23]) was 92.9%. For the same molecule, the “% Enzyme Activity (relative to DMSO controls)” value (panel of 391 kinases [13]) was 123.95%, the remaining activity at 1 µM (panel of 391 kinases [13]; [23]) was 128% and the “% Enzyme Activity (relative to DMSO controls)” value (panel of 391 kinases [14]) was 98.71%. For the same molecule, the remaining activity at 1 µM (panel of 391 kinases [14]; [23]) was 104%, the “% Enzyme Activity (relative to DMSO controls)” value (panel of 391 kinases [15]) was 93.44% and the remaining activity at 1 µM (panel of 391 kinases [15]; [23]) was 96%. For the same molecule, the “% Enzyme Activity (relative to DMSO controls)” value (panel of 391 kinases [16]) was 93.81%, the remaining activity at 1 µM (panel of 391 kinases [16]; [23]) was 94% and the “% Enzyme Activity (relative to DMSO controls)” value (panel of 391 kinases [17]) was 104.21%. For the same molecule, the remaining activity at 1 µM (panel of 391 kinases [17]; [23]) was 106%, the “% Enzyme Activity (relative to DMSO controls)” value (panel of 391 kinases [18]) was 94.50% and the remaining activity at 1 µM (panel of 391 kinases [18]; [23]) was 102%. For the same molecule, the “% Enzyme Activity (relative to DMSO controls)” value (panel of 391 kinases [19]) was 105.55%, the remaining activity at 1 µM (panel of 391 kinases [19]; [23]) was 109% and the “% Enzyme Activity (relative to DMSO controls)” value (panel of 391 kinases [20]) was 104.62%. The remaining activity at 1 µM (panel of 391 kinases [20]; [23]) was 112%, the “% Enzyme Activity (relative to DMSO controls)” value (panel of 391 kinases [21]) was 76.84% and the remaining activity at 1 µM (panel of 391 kinases [21]; [23]) was 80.6%. The “% Enzyme Activity (relative to DMSO controls)” value (panel of 391 kinases [22]) was 122.10% and the remaining activity at 1 µM (panel of 391 kinases [22]; [23]) was 124%.
